Experimental findings from ChEMBL document CHEMBL4014351, “Discovery of Allosteric Inhibitors Targeting the Spliceosomal RNA Helicase Brr2” (J Med Chem, 2017) are described below.

Series [1] can be described thus: physchem. The note with it: aqueous buffer, pH 6.8.
Description: Solubility of the compound in pH 6.8 aqueous buffer by UV absorbance method
Series [2] is described as follows: physchem. The note with it: PAMPA, pH 7.4. In general terms: In PAMPA a lipid-coated filter parts donor from acceptor wells.
Description: Permeability of the compound at 10 uM at pH 7.4 after 3 hrs by PAMPA
Series [3] can be described thus: physchem. Conditions: 1-octanol/aqueous buffer, pH 7.4.
For series [4], the target named is Eukaryotic initiation factor 4A-I (Homo sapiens, UniProt P60842).
Eukaryotic initiation factor 4A-I, sequence (P60842 whole entry): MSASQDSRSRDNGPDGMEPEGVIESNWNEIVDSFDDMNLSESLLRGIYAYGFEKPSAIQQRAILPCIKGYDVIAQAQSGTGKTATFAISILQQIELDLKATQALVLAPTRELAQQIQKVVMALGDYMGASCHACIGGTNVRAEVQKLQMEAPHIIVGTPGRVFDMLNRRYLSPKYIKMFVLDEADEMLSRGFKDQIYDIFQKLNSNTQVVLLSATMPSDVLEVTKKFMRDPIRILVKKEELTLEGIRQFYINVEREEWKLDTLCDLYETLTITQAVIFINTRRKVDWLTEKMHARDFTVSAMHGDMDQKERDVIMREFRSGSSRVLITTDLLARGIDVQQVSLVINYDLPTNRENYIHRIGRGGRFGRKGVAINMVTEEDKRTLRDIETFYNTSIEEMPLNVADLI
Description: Inhibition of eIF4G-induced full length recombinant human N-terminal His6/SUMO-tagged eIF4A1 RNA dependent ATPase activity expressed in Escherichia coli BL21(DE3) using single stranded poly(U) RNA as substrate after 30 mins by ADP-Glo luminescence assay
For series [5], the target named is Eukaryotic initiation factor 4A-III (Homo sapiens, UniProt P38919).
Eukaryotic initiation factor 4A-III, sequence (P38919 whole entry): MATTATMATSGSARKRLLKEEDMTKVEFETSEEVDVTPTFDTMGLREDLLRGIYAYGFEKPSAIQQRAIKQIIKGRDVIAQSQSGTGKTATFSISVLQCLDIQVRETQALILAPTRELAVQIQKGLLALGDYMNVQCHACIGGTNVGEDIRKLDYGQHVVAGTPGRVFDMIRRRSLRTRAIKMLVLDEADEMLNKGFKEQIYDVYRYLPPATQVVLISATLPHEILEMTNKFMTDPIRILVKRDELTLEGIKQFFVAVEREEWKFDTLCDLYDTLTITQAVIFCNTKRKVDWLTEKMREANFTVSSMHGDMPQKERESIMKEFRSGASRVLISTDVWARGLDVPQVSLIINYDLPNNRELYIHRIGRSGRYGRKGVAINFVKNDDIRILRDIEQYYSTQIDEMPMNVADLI
Description: Inhibition of MLN51-induced full length recombinant human N-terminal His6/SUMO-tagged eIF4A3 RNA dependent ATPase activity expressed in Escherichia coli BL21(DE3) using single stranded poly(U) RNA as substrate after 30 mins by ADP-Glo luminescence assay
Series [6] addresses T1, U5 small nuclear ribonucleoprotein 200 kDa helicase (Homo sapiens, UniProt O75643). The series can be described thus: biochemical.
Description: Inhibition of full length recombinant human N-terminal His-tagged BRR2 RNA dependent ATPase activity expressed in baculovirus infected Sf9 cells using single stranded poly(U) RNA as substrate after 30 mins by ADP-Glo luminescence assay
Series [7] has as its target T2, ATP-dependent RNA helicase DHX29 (Homo sapiens, UniProt Q7Z478).
T2 sequence (Q7Z478 whole entry): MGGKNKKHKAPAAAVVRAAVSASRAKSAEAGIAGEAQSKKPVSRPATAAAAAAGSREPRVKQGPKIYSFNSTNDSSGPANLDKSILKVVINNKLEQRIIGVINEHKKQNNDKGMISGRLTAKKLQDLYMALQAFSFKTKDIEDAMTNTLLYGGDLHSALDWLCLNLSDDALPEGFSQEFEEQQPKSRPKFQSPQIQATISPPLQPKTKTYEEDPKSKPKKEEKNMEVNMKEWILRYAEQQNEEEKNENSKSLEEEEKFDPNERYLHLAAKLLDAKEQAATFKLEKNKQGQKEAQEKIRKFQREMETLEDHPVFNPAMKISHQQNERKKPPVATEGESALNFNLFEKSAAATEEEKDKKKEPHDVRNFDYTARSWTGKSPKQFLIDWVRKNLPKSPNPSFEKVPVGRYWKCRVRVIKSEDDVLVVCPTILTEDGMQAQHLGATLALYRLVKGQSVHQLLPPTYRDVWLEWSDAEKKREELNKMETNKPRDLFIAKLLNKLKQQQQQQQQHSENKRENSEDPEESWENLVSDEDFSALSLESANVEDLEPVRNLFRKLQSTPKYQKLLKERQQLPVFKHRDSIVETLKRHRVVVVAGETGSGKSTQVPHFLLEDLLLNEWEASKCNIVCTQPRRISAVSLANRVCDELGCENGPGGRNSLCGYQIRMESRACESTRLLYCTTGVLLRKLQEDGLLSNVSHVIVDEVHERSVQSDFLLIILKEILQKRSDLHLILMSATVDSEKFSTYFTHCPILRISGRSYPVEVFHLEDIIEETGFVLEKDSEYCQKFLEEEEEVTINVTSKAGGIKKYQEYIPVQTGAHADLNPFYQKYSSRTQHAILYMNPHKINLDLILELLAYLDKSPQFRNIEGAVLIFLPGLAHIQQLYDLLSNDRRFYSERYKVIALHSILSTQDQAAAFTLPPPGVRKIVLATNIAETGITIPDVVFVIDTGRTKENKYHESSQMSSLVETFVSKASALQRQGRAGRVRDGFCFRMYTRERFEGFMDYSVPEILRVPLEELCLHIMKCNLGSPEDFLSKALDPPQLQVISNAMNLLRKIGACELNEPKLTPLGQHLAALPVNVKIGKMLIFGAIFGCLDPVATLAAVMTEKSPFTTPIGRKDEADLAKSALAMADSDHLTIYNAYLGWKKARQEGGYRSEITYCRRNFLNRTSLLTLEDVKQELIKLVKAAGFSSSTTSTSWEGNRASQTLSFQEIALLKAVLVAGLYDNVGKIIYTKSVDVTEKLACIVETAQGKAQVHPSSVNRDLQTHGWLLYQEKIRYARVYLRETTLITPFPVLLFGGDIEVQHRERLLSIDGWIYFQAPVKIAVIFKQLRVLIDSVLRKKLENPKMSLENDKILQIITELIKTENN
The series can be described thus: biochemical.
Description: Inhibition of full length recombinant human N-terminal FLAG-His-tagged DHX29 RNA dependent ATPase activity expressed in baculovirus infected Sf9 insect cells using single stranded poly(U) RNA as substrate after 30 mins by ADP-Glo luminescence assay

Series [8] has as its target T1, U5 small nuclear ribonucleoprotein 200 kDa helicase. The series can be described thus: biochemical. The source holds these as a separate data set.

Each structure is given as a SMILES string. In brackets after ≈: the same amount, converted by molar mass.

T1 sequence (O75643 whole entry): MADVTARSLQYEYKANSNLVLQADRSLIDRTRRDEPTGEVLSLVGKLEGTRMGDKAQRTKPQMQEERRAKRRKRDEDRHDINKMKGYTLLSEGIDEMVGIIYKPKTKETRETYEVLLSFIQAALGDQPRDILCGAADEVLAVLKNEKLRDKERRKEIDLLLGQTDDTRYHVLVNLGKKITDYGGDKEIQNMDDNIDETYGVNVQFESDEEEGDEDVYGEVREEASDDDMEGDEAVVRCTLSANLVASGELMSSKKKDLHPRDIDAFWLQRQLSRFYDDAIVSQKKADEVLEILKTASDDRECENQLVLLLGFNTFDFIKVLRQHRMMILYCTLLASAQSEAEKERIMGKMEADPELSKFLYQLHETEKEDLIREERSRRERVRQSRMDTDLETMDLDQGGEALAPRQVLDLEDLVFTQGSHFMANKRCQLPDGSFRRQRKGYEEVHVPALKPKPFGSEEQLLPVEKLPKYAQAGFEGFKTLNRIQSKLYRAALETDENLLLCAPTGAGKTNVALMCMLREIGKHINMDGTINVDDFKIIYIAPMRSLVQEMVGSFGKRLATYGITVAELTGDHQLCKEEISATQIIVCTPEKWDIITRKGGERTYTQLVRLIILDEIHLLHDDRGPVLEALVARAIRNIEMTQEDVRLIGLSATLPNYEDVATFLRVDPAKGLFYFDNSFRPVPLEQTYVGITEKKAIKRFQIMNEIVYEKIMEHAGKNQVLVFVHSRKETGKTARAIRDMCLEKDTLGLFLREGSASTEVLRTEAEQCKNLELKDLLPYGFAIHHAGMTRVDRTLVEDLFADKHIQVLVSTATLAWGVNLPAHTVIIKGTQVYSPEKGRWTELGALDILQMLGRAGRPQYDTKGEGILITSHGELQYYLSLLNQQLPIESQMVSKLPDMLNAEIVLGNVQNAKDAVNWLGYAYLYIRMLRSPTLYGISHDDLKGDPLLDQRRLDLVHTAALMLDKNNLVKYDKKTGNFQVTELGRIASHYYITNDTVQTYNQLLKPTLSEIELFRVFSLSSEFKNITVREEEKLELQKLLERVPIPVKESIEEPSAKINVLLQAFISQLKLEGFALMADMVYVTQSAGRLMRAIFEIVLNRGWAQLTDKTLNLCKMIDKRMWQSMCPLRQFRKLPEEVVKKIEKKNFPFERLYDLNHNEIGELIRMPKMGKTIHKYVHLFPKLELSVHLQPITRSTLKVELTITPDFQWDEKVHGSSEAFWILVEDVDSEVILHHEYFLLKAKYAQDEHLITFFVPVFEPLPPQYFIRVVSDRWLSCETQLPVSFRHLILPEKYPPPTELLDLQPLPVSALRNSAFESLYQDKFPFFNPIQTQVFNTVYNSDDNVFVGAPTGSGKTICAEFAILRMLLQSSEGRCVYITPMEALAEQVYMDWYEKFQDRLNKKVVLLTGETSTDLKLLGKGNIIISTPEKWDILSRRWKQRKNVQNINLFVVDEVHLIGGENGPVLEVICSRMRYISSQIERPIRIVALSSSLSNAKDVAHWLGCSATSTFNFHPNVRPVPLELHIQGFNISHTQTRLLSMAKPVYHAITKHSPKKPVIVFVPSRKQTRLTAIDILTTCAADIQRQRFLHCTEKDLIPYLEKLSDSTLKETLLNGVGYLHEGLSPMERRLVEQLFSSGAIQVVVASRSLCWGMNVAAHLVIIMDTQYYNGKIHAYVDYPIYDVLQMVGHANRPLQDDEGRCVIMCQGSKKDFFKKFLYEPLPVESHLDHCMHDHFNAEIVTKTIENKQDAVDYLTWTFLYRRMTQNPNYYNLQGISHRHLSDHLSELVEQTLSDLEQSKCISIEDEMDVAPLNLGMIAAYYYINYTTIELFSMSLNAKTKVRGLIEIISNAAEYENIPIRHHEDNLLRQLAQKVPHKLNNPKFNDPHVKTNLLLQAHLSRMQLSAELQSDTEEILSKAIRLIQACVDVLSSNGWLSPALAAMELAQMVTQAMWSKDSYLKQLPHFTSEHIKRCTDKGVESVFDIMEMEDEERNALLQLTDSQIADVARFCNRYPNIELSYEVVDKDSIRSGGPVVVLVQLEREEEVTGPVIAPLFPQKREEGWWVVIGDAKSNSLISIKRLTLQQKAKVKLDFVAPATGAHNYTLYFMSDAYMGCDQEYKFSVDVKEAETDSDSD

As for `O=C1Nc2cc(=O)n(Cc3ccccc3)cc2CN1c1cccc(OCc2ccccn2)c1`, in the series “physchem [1]”, the solubility (in general, the concentration that dissolves in the medium under given conditions) turned out to be 69 µg/mL (≈ 157 µM). For the same compound, the Papp (commonly the rate of passage across a membrane or cell layer, normalised by area and donor concentration) at 3 h, 10 µM in “physchem [2]” stood at 27.3 ×10⁻⁶ cm/s. Besides, the chromatographic logD (usually a lipophilicity value derived from retention on a column) in the series “physchem [3]” came out at 2.

For the compound `O=C1Nc2cc(=O)n(Cc3ccccc3)cc2CN1c1cccc(OCc2cncs2)c1`, the IC50 (commonly the concentration at which inhibition is half-maximal) in series [4] was above 100 µM; in series [5], above 100 µM; in series [6] it was 0.079 µM; in series [7], above 100 µM; in series [8], 1.3 µM. The compound also returned a solubility in “physchem [1]” of 49 µg/mL (≈ 110 µM). Besides, in “physchem [2]”, the Papp at 3 h, 10 µM is 13.1 ×10⁻⁶ cm/s. The compound further showed a chromatographic logD in the series “physchem [3]” of 1.7.

Turning to `N=C1/C(=C/c2ccc(-c3cccc(C(=O)O)c3)o2)C(=O)N=C2SC(C3CCCCC3)=NN12`, the half-maximal inhibitory concentration (IC50) was found to be 57 µM in series [4], 32 µM in series [5], 5.3 µM in series [6] and 58 µM in series [7].

In the case of `O=C1Nc2cc(=O)n(Cc3ccccc3)cc2CN1c1cccc(OCc2cccnc2)c1`, the concentration for half-maximal inhibition (IC50) was above 100 µM in series [4], above 100 µM in series [5] and 0.18 µM in series [6]. In addition, the concentration in solution in “physchem [1]” (solubility) was 59 µg/mL (≈ 135 µM). This compound gave a Papp at 3 h, 10 µM in “physchem [2]” of 14.2 ×10⁻⁶ cm/s. The same compound registered a chromatographic logD in “physchem [3]” of 1.9.

Take `Cc1cc2c(cc1N1Cc3cn(Cc4ccccc4)c(=O)cc3N(C)C1=O)OC(c1ncccc1F)CC2` (racemic): in series [6], the IC50 was above 100 µM.

As to `Cc1cc2c(cc1N1Cc3cn(Cc4ccccc4)c(=O)cc3NC1=O)OC(c1ncccc1F)CC2` (racemic), the IC50 was above 100 µM in series [4], above 100 µM in series [5], 5.3 µM in series [6] and above 100 µM in series [7].

`Cc1cc2c(cc1N1Cc3cn(C)c(=O)cc3NC1=O)OC(c1ncccc1F)CC2` (racemic) gave an IC50 in series [6] above 100 µM.
